The values that follow come from patent publication US8541588B2, “Sulfonamide derivatives” (Pfizer Limited, priority 2009, dated 2013).

For this assay, the target named is T1, Nav1.7 (or SCN9A) channel; HEK cells stably transfected with hSCN9A (Homo sapiens, UniProt Q15858).
T1 construct: expressed in transfected cells
As to the kind of experiment: Nav1.7 block, PatchXpress 7000 automated whole-cell voltage clamp, estimated IC50 (EIC50). Format: cell-based. Particulars: PatchXpress platform; hSCN9A HEK cells held at V1/2 of inactivation; estimated IC50.

Where “and” joins values, the source holds several entries; their conditions need not be identical. Equal values may be shown once.

T1 sequence (Q15858 whole entry): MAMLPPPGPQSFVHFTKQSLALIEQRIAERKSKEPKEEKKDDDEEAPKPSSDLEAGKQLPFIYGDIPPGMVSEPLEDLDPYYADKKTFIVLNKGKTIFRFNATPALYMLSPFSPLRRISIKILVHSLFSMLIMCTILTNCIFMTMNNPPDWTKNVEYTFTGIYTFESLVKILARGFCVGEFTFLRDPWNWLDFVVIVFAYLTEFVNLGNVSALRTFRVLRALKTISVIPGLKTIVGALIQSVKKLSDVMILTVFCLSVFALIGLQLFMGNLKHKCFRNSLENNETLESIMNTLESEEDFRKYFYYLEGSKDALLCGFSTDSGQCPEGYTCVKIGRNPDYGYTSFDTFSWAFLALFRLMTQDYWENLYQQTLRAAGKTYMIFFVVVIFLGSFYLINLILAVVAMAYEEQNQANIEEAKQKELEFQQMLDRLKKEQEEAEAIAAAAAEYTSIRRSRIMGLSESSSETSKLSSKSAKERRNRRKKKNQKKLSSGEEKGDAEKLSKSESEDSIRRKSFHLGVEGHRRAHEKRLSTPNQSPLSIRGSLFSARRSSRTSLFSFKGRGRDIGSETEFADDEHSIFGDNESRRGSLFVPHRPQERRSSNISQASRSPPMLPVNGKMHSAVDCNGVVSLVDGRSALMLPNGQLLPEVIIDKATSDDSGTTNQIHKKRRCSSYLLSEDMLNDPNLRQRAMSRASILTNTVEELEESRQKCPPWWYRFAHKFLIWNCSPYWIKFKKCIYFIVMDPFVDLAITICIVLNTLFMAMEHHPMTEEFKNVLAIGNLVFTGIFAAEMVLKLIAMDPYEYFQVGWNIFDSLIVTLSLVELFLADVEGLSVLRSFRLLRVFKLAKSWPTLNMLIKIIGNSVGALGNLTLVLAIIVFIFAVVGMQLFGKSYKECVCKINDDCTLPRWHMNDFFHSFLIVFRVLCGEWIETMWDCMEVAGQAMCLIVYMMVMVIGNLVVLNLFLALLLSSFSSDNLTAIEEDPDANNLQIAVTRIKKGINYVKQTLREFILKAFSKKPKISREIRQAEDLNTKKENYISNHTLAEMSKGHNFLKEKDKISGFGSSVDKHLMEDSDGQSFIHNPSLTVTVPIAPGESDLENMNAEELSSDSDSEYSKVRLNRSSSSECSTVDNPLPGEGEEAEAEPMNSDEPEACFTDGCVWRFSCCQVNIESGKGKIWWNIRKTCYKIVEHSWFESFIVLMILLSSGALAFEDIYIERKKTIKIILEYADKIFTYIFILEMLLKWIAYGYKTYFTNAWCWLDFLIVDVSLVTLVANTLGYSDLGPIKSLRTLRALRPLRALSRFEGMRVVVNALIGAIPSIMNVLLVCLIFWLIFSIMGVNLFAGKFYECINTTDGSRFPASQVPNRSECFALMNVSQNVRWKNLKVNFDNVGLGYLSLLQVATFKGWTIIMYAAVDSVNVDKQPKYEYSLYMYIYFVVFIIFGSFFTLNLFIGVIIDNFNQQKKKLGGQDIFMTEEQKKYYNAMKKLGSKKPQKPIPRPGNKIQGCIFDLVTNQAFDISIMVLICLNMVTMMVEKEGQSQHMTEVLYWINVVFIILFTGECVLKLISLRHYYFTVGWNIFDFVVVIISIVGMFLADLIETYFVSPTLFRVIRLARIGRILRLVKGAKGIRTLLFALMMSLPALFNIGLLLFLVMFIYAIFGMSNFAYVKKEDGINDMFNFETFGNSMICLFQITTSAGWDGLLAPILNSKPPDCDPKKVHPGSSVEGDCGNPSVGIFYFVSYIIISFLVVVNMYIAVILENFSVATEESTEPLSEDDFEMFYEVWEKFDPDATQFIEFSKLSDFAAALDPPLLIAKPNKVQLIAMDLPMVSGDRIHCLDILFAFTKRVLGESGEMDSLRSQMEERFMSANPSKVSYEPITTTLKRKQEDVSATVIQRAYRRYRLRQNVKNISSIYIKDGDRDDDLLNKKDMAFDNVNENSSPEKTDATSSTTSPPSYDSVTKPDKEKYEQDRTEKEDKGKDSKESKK

On to `N#Cc1cc(S(=O)(=O)Nc2ncns2)ccc1Oc1ccc(Cl)cc1Oc1ccccc1` [Example 79, 4-(4-chloro-2-phenoxyphenoxy)-3-cyano-N-1,2,4-thiadiazol-5-ylbenzenesulfonamide], for which the IC50 (commonly the concentration at which inhibition is half-maximal) was 450 nM.
In the case of `N#Cc1cc(S(=O)(=O)Nc2ncns2)ccc1Oc1cc(C(F)(F)F)nn1Cc1ccccc1` [Example 80, 4-{[1-benzyl-3-(trifluoromethyl)-1H-pyrazol-5-yl]oxy}-3-cyano-N-1,2,4-thiadiazol-5-ylbenzenesulfonamide] it was more than 300 nM; in that of `N#Cc1cc(S(=O)(=O)Nc2ncns2)ccc1Oc1cc(C(F)(F)F)nn1-c1ccccc1` [Example 81, 3-cyano-4-{[1-phenyl-3-(trifluoromethyl)-1H-pyrazol-5-yl]oxy}-N-1,2,4-thiadiazol-5-ylbenzenesulfonamide], 510 nM.
Consider `Cn1nc(-c2ccccc2)cc1Oc1ccc(S(=O)(=O)Nc2ncns2)cc1C#N` [Example 82, 3-cyano-4-[(1-methyl-3-phenyl-1H-pyrazol-5-yl)oxy]-N-1,2,4-thiadiazol-5-ylbenzenesulfonamide], for which the IC50 was 37200 nM.
In the case of `CC(C)(C)n1nccc1-c1c(F)cccc1Oc1ccc(S(=O)(=O)Nc2ncns2)cc1C#N` [Example 83, 4-[2-(1-tert-butyl-1H-pyrazol-5-yl)-3-fluorophenoxy]-3-cyano-N-1,2,4-thiadiazol-5-ylbenzenesulfonamide] it was 2450 nM.
Take `CC(C)(C)n1ccc(-c2c(F)cccc2Oc2ccc(S(=O)(=O)Nc3ncns3)cc2C#N)n1` [Example 84, 4-[2-(1-tert-Butyl-1H-pyrazol-3-yl)-3-fluoro-phenoxy]-3-cyano-N-[1,2,4]thiadiazol-5-yl-benzene-sulfonamide]: the IC50 was more than 10000 nM.
As for `Cn1ccc(-c2c(F)cccc2Oc2ccc(S(=O)(=O)Nc3ncns3)cc2C#N)n1` [Example 85, 3-Cyano-4-[3-fluoro-2-(1-methyl-1H-pyrazol-3-yl)-phenoxy]-N-[1,2,4]thiadiazol-5-yl-benzene-sulfonamide], the IC50 was 1430 nM.
In the case of `Cn1nccc1-c1c(F)cccc1Oc1ccc(S(=O)(=O)Nc2ncns2)cc1C#N` [Example 86, 3-cyano-4-[3-fluoro-2-(1-methyl-1H-pyrazol-5-yl)phenoxy]-N-1,2,4-thiadiazol-5-ylbenzenesulfonamide] it was 1880 nM; in that of `N#Cc1cc(S(=O)(=O)Nc2ncns2)ccc1Oc1cc(C2CC2)nn1-c1cc(F)ccc1F` [Example 87, 3-cyano-4-{[3-cyclopropyl-1-(2,5-difluorophenyl)-1H-pyrazol-5-yl]oxy}-N-1,2,4-thiadiazol-5-ylbenzenesulfonamide], 1600 nM; in that of `N#Cc1cc(S(=O)(=O)Nc2ncns2)ccc1Oc1cc(C(F)(F)F)nn1-c1ccccc1F` [Example 88, 3-cyano-4-{[1-(2-fluorophenyl)-3-(trifluoromethyl)-1H-pyrazol-5-yl]oxy}-N-1,2,4-thiadiazol-5-ylbenzenesulfonamide], 270 nM.
As to `N#Cc1cc(S(=O)(=O)Nc2ncns2)ccc1Oc1cccc(F)c1-c1ccn[nH]1` [Example 89, 3-cyano-4-[3-fluoro-2-(2H-pyrazol-3-yl)-phenoxy]-N-[1,2,4]thiadiazol-5-yl-benzenesulfonamide], the IC50 was 680 nM.
The value for `N#Cc1cc(S(=O)(=O)Nc2ncns2)ccc1Oc1ccc(Cl)cc1-c1ccnn1CCO` [Example 90, 4-(4-chloro-2-(1-(2-hydroxyethyl)-1H-pyrazol-5-yl)phenoxy)-3-cyano-N-(1,2,4-thiadiazol-5-yl)benzenesulfonamide] was 100 nM; that for `Cn1nccc1-c1cc(CO)ccc1Oc1ccc(S(=O)(=O)Nc2ncns2)cc1C#N` [Example 91, 3-cyano-4-(4-(hydroxymethyl)-2-(1-methyl-1H-pyrazol-5-yl)phenoxy)-N-(1,2,4-thiadiazol-5-yl)benzenesulfonamide] was 1120 nM; that for `CCOC(=O)Cn1nc(Cc2ccc(Cl)cc2)cc1Oc1ccc(S(=O)(=O)Nc2ncns2)cc1C#N` [Example 92, 3-(4-chloro-benzyl)-5-{2-cyano-4-(1,2,4-thiadiazol-5-ylsulfamoyl)-phenoxy}-pyrazol-1-yl-acetic acid ethyl ester] was 1810 nM.
The value for `N#Cc1cc(S(=O)(=O)Nc2ncns2)ccc1Oc1cc(Cc2ccc(Cl)cc2)nn1CC(N)=O` [Example 93, 2-[3-(4-chlorobenzyl)-5-{2-cyano-4-[(1,2,4-thiadiazol-5-ylamino)sulfonyl]phenoxy}-1H-pyrazol-1-yl]acetamide] was 1570 nM; that for `N#Cc1cc(S(=O)(=O)Nc2ncns2)ccc1Oc1cc(Cc2ccc(Cl)cc2)nn1CCO` [Example 94, 4-{[3-(4-chlorobenzyl)-1-(2-hydroxyethyl)-1H-pyrazol-5-yl]oxy}-3-cyano-N-1,2,4-thiadiazol-5-ylbenzenesulfonamide] was 2180 nM; that for `N#Cc1cc(S(=O)(=O)Nc2ncco2)ccc1Oc1ccccc1-c1ccccc1` [Example 95, 4-(biphenyl-2-yloxy)-3-cyano-N-1,3-oxazol-2-ylbenzenesulfonamide] was more than 10000 nM.
Take `COc1nsc(NS(=O)(=O)c2ccc(Oc3ccccc3-c3ccccc3)c(C#N)c2)n1` [Example 96, 4-(biphenyl-2-yloxy)-3-cyano-N-(3-methoxy-1,2,4-thiadiazol-5-yl)benzenesulfonamide]: the IC50 was 12500 nM.
The value for `N#Cc1cc(S(=O)(=O)Nc2cscn2)ccc1Oc1ccccc1-c1ccccc1` [Example 97, 4-(biphenyl-2-yloxy)-3-cyano-N-1,3-thiazol-4-ylbenzenesulfonamide] was 2320 nM.
In the case of `N#Cc1cc(S(=O)(=O)Nc2cnsc2)ccc1Oc1ccccc1-c1ccccc1` [Example 99, 4-(biphenyl-2-yloxy)-3-cyano-N-isothiazol-4-ylbenzenesulfonamide] it was >10000 nM and 24900 nM; in that of `Cc1cnc(NS(=O)(=O)c2ccc(Oc3ccccc3-c3ccccc3)c(C#N)c2)s1` [Example 100, 4-(biphenyl-2-yloxy)-3-cyano-N-(5-methyl-1,3-thiazol-2-yl)benzenesulfonamide], 3170 nM.
The value for `Cc1csc(NS(=O)(=O)c2ccc(Oc3ccccc3-c3ccccc3)c(C#N)c2)n1` [Example 101, 4-(biphenyl-2-yloxy)-3-cyano-N-(4-methyl-1,3-thiazol-2-yl)benzenesulfonamide] was 1580 nM; that for `CCc1nsc(NS(=O)(=O)c2ccc(Oc3ccccc3-c3ccccc3)c(C#N)c2)n1` [Example 102, 4-(biphenyl-2-yloxy)-3-cyano-N-(3-ethyl-1,2,4-thiadiazol-5-yl)benzenesulfonamide] was more than 10000 nM.
`Cc1nsc(NS(=O)(=O)c2ccc(Oc3ccccc3-c3ccccc3)c(C#N)c2)n1` [Example 103, 4-(biphenyl-2-yloxy)-3-cyano-N-(3-methyl-1,2,4-thiadiazol-5-yl)benzenesulfonamide]: the IC50 was 1300 nM.
`N#Cc1cc(S(=O)(=O)Nc2nncs2)ccc1Oc1ccccc1-c1ccccc1` [Example 104, 4-(biphenyl-2-yloxy)-3-cyano-N-1,3,4-thiadiazol-2-ylbenzenesulfonamide]: the IC50 is 2250 nM.
The value for `N#Cc1cc(S(=O)(=O)Nc2cncs2)ccc1Oc1ccccc1-c1ccccc1` [Example 105, 4-(biphenyl-2-yloxy)-3-cyano-N-1,3-thiazol-5-ylbenzenesulfonamide] was 2670 nM; that for `N#Cc1cc(S(=O)(=O)Nc2ccncn2)ccc1Oc1ccccc1-c1ccccc1` [Example 106, 4-(biphenyl-2-yloxy)-3-cyano-N-pyrimidin-4-ylbenzenesulfonamide] was 4160 nM; that for `N#Cc1cc(S(=O)(=O)Nc2cnoc2)ccc1Oc1ccccc1-c1ccccc1` [Example 108, 4-(biphenyl-2-yloxy)-3-cyano-N-isoxazol-4-ylbenzenesulfonamide] was more than 10000 nM.
In the case of `N#Cc1cc(S(=O)(=O)Nc2ccon2)ccc1Oc1ccccc1-c1ccccc1` [Example 110, 4-(biphenyl-2-yloxy)-3-cyano-N-isoxazol-3-ylbenzenesulfonamide] it was 4270 nM; in that of `N#Cc1cc(S(=O)(=O)Nc2ccccc2C(F)(F)F)ccc1Oc1ccccc1-c1ccccc1` [Example 111, 4-(biphenyl-2-yloxy)-3-cyano-N-[2-(trifluoromethyl)phenyl]benzenesulfonamide], more than 3000 nM; in that of `Cc1snnc1NS(=O)(=O)c1ccc(Oc2ccccc2-c2ccccc2)c(C#N)c1` [Example 112, 4-(biphenyl-2-yloxy)-3-cyano-N-(5-methyl-1,2,3-thiadiazol-4-yl)benzenesulfonamide], 33700 nM.
The value for `Cn1ccnc1NS(=O)(=O)c1ccc(Oc2ccccc2-c2ccccc2)c(C#N)c1` [Example 113, 4-(biphenyl-2-yloxy)-3-cyano-N-(1-methyl-1H-imidazol-2-yl)benzenesulfonamide] was 12900 nM.
With `N#Cc1cc(S(=O)(=O)Nc2ccccc2)ccc1Oc1ccccc1-c1ccccc1` [Example 114, 4-(biphenyl-2-yloxy)-3-cyano-N-phenylbenzenesulfonamide], the IC50 is more than 10000 nM.
The value for `N#Cc1cc(S(=O)(=O)Nc2cc(C(F)(F)F)ncn2)ccc1Oc1ccccc1-c1ccccc1` [Example 115, 4-(biphenyl-2-yloxy)-3-cyano-N-[6-(trifluoromethyl)pyrimidin-4-yl]benzenesulfonamide] was more than 10000 nM; that for `N#Cc1cc(S(=O)(=O)Nc2ccnc(C(F)(F)F)n2)ccc1Oc1ccccc1-c1ccccc1` [Example 116, 4-(biphenyl-2-yloxy)-3-cyano-N-[2-(trifluoromethyl)pyrimidin-4-yl]benzenesulfonamide] was 3110 nM.
As for `N#Cc1cc(S(=O)(=O)Nc2ncc[nH]2)ccc1Oc1ccccc1-c1ccccc1` [Example 117, 4-(biphenyl-2-yloxy)-3-cyano-N-1H-imidazol-2-ylbenzenesulfonamide], the IC50 was 19200 nM.
Take `Cc1nn(C)c(C)c1Cc1ccc(Oc2ccc(S(=O)(=O)Nc3nccs3)cc2F)cc1` [Example 118, 3-fluoro-N-1,3-thiazol-2-yl-4-{4-[(1,3,5-trimethyl-1H-pyrazol-4-yl)methyl]phenoxy}benzenesulfonamide]: the IC50 was 18400 nM.
